In US12258321B1 (University of Jeddah, priority 2024, dated 2025):

How the values were obtained:
MCF-7 cells = assay: MTT cytotoxicity test on MCF-7 breast cancer cells; type: cell-based, human; conditions: for IC50: Homo sapiens, MCF7, 24 h, read-out: IC50, cytotoxic activity against MCF7 breast cancer cells
Protocol: The MCF-7 breast cancer cell lines were purchased from VACSERA Tissue Culture Unit (Giza, Egypt). MCF-7 cells were cultured in RPMI medium supplemented with 2 mM glutamine and 10% fetal bovine serum. Both cell cultures included […] streptomycin and 100 units/ml penicillin and were kept in a humidified atmosphere with 5% CO2 at 37° C.
All experiments were performed in triplicate. Data were given as mean±SD.

BCL-2 [1] = target: T1, BCL-2 (Homo sapiens, UniProt P10415); assay: BCL-2 inhibition by TR-FRET assay (cell-free); type: binding; conditions: read-out: IC50 against BCL-2
T1 construct: purchased BPS Bioscience
T1 sequence (P10415 whole entry): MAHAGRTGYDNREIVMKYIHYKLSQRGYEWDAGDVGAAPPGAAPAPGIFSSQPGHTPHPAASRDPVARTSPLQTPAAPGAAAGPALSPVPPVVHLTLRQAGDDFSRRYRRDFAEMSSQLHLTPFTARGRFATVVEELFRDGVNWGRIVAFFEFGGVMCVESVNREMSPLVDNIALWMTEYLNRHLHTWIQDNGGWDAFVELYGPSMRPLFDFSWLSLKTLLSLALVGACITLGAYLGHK
Protocol: (§1) The effectiveness of inhibiting the MCL-1 and BCL-2 proteins was evaluated using specific assay kits (BPS Bioscience, Sandiego, CA) and corresponding ligands for each protein. […] Measurements were taken of Tb-donor emission at 620 nm followed by dye-acceptor emission at 665 nm, and data analysis was performed using the TR-FRET ratio (665 nm emission/620 nm emission). The FRET value from the positive control was considered as full activity (100%) and the FRET value from the negative control was considered as zero percent activity. Then, % inhibitory activity of test compounds was calculated by the equation: % Activity=FRETS−FRETneg/FRETP−FRETneg×100%
(§2) Where FRETS, FRETneg, and FRETp are sample FRET, negative control FRET, and positive control FRET, respectively. The IC50 values of the test compounds were calculated by nonlinear regression analysis on GraphPad Prism 5 (GraphPad Inc., USA).

MCL-1 [2] = target: T2, MCL-1 (Homo sapiens, UniProt Q07820); assay: MCL-1 inhibition by TR-FRET assay (cell-free); type: binding; conditions: read-out: IC50 against MCL-1
T2 construct: purchased BPS Bioscience
T2 sequence (Q07820 whole entry): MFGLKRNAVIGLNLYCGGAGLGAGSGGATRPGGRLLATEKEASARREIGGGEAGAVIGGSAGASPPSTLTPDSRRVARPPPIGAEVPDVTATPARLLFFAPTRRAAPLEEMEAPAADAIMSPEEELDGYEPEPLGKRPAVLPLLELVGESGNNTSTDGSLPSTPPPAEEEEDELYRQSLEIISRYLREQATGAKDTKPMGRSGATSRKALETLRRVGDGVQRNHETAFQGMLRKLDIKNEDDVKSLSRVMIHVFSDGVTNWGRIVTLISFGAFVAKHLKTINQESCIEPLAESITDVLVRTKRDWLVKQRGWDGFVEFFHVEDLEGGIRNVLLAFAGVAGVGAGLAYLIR
Protocol: as §1, §2

BAX = assay: Western blot of BAX level in MCF7 cells; type: cell-based, human; conditions: 24 hours
Protocol: (§3) MCF-7 cells were exposed to compounds Comp-1 and Comp-6 for a period of 24 h, after which western blot analysis was conducted using a previously established protocol^21. To assess the release of cytochrome c, cytosolic and mitochondrial fractions were prepared in accordance with the methods outlined by Kawiak et al^21. Specific primary antibodies were utilized viz; anti-β-actin (1:1,000) (Cell Signaling, Danvers, MA, USA), anti-Bcl-2, anti-Bax, and anti-Mcl-1 (1:250) (Santa Cruz, Heidelberg, Germany), anti-ERK1/2, anti-MEK1/2, anti-p-ERK1/2, and anti-p-MEK1/2 (1:1,000) (Cell Signaling), and anti-cytochrome c (1:5,000) (Abcam, UK), and membranes were subjected to an overnight incubation with these antibodies at 4° C. This was followed by a 1 h incubation with HRP-conjugated secondary antibodies (1:2000) (Cell Signaling). The levels of protein were then determined using chemiluminescence (ChemiDoc; Bio-Rad, Waltham, MA, USA) with an HRP substrate (Thermo Scientific, MA, USA).
(§4) The cytotoxic mechanisms of the exemplary compounds Comp-1 and Comp-6 were investigated. Given that apoptosis is a common mechanism of action for many cancer therapies, we analyzed the levels of apoptotic markers BAX, BCL-2 and MCL-1 after treating MCF7 cells with Comp-1 and Comp-6 for 24 hours. Western blot analysis was performed on cell lysates and compared to untreated cell lysates.

BCL-2 [3] = assay: Western blot of BCL-2 expression in MCF7 cells; type: cell-based, human; conditions: 24 hours, vs untreated
Protocol: as §3, §4

MCL-1 [4] = assay: Western blot of MCL-1 expression in MCF7 cells; type: cell-based, human; conditions: 24 hours, vs untreated
Protocol: as §3, §4

p-MEK1/2 = assay: Western blot of p-MEK1/2 in EGF-stimulated MCF7 cells; type: cell-based, human; conditions: MCF7 cells stimulated with EGF for 30 minutes
Protocol: as §3
(§5) To investigate the impact of exemplary compounds on the cancer-promoting MAPK pathway in MCF7 breast cancer cells, we stimulated the cells with epidermal growth factor (EGF) for 30 minutes to induce p-ERK1/2 and p-MEK1/2 protein expression.

p-ERK1/2 = assay: Western blot of p-ERK1/2 in EGF-stimulated MCF7 cells; type: cell-based, human; conditions: MCF7 cells stimulated with EGF for 30 minutes
Protocol: as §3, §5

Row | Structure (SMILES) | IC50 (MCF-7 cells) [µM] | potency relative to the reference drug Staurosporine (fold higher) (MCF-7 cells; MCF7 cytotoxicity IC50 ratio) | IC50 (BCL-2 [1]) [µM] | IC50 (MCL-1 [2]) [µM] | BAX increase compared to untreated cells (Control) (BAX) | reduction of BCL-2 expression (BCL-2 [3]) [%] | reduction of MCL-1 expression (MCL-1 [4]) [%] | reduction of p-MEK1/2 signal (p-MEK1/2) [%] | reduction of p-ERK1/2 signal (p-ERK1/2) [%]
1 | O=C(Cc1ccc(-n2cc(CO)nn2)cc1)NCc1ccccc1 [Comp-1, N-benzyl-2-(4-(4-(hydroxymethyl)-1H-1,2,3-triazol-1-yl)phenyl)acetamide] | 1.09 | approximately 5 fold | 0.507 | 0.365 | more than five-fold | 65.3 | 65.4 | 65.3 | 46.1
2 | O=C(Cc1ccc(-n2cc(COc3cccc4ccccc34)nn2)cc1)NCc1ccccc1 | 1.88 |  | 1.92 | 0.756 | nine-fold | 55.9 | 43.7 | 55.9 | 50.7
3 | O=C(Cc1ccc(-n2cc(COCc3ccccc3)nn2)cc1)NCc1ccccc1 [Comp-5, N-benzyl-2-(4-(4-((benzyloxy)methyl)-1H-1,2,3-triazol-1-yl)phenyl)acetamide] | 3.2 |  |  |  |  |  |  |  | 
